Assay results published in US20230151003A1, “COMPOUNDS AND METHODS OF USE” (Exelixis, Inc., priority 2020, published 2023).

Key:
Assay type in all cases: biochemical
[1] = target: T1, Human MER (Homo sapiens, UniProt Q12866); assay: Human MER kinase assay (HTRF KinEase); conditions: Table 2 Biological Activities, ATP at Km (40 μM)
T1 construct: Human MER (residues 528-999; CarnaBio, 1 ng/ well); purchased CarnaBio
T1 sequence (Q12866 528-999): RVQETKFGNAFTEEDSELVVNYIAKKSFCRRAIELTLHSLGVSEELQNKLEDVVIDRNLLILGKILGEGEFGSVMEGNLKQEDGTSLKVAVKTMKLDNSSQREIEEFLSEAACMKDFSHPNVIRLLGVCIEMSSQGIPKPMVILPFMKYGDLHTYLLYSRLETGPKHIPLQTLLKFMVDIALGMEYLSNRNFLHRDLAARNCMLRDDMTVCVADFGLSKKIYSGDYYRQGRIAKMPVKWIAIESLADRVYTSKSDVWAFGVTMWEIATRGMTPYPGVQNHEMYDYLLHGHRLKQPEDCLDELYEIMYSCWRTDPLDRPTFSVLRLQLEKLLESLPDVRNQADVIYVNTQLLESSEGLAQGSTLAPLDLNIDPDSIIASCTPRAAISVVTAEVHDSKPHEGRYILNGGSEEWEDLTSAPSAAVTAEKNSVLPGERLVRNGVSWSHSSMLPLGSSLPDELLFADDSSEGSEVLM
Protocol: (§1) Kinase activity and compound inhibition were investigated using the HTRF® KinEase assay (Cisbio Cat #62TKOPEB) per manufacturer's instructions. In short, compounds were delivered in 300 nL volumes at 10 different concentrations in DMSO (3% final) to empty 384-well assay plates (Corning cat #3824). A mixture of enzyme, 1 μM biotynlated peptide substrate, and buffer in 10 μL volume was added. The assay was started upon the addition of ATP (at Km). The 10 μL reaction was incubated at room temperature. The reaction was stopped upon the addition of detection buffer containing streptavidin-XL665 (5 μL) and TK antibody-Eu3+ (5 μL). After a 60 min incubation at room temperature, the fluorescence at 665 nm and 620 nm was read on an Envision microplate reader (Perkin Elmer). Kinase activity normalized to DMSO (100% activity) and reference compound at 1 μM and (0% activity) was calculated using the fluorescence ratio […]. IC50 values were calculated by nonlinear regression analysis using a 4-parameter logistic curve fit in ActivityBase XE (IDBS).
(§2) Human MER (residues 528-999; CarnaBio, 1 ng/ well) was incubated with enzymatic buffer (Cisbio) supplemented with 5 mM MgCl2 and 1 mM DTT. The mixture was added to the pre-plated compounds. The reaction was initiated upon addition of ATP at Km (40 μM). The reaction was incubated at room temperature for 60 min and stopped upon the addition of SA-XL665 and TK-antibody both diluted in EDTA-containing kinase detection buffer (Cisbio). The kinase activity was calculated as stated above and the IC50 values were reported.

[2] = target: T2, Human AXL (Homo sapiens, UniProt P30530); assay: Human AXL kinase assay (HTRF KinEase); conditions: Table 2 Biological Activities, ATP at Km (1.0 μM)
T2 construct: Human AXL (residues 464-885; CarnaBio, 1 ng/ well); purchased CarnaBio
T2 sequence (P30530 464-885 isoform P30530-2): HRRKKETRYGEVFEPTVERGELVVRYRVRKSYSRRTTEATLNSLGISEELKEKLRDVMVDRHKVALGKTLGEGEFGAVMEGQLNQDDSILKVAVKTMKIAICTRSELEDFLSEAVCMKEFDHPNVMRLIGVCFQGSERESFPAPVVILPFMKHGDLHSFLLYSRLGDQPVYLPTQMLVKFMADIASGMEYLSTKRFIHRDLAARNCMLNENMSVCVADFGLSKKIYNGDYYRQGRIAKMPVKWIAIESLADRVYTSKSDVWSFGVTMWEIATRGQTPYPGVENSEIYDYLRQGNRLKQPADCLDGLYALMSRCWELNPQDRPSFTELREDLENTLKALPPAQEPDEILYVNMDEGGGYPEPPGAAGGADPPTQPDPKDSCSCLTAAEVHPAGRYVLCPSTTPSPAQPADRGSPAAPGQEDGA
Protocol: as §1
as §2, with “AXL” for “MER”, “464-885;” for “528-999;”, “MgCl2,” for “MgCl2 and”, “DTT, and Supplemental Enzymatic Buffer (SEB; Cisbio).” for “DTT.”, “(1.0” for “(40”, “50” for “60”

[3] = target: KDR (Homo sapiens, UniProt P35968); assay: Human KDR kinase assay (HTRF KinEase); parameters: Human KDR (residues 790-1356; CarnaBio, 0.1 ng/ well); purchased CarnaBio; conditions: Table 2 Biological Activities, ATP at Km (4.0 μM)
Protocol: as §1
as §2, with “Human KDR” for “Human MER”, “(residues 790-1356;” for “(residues 528-999;”, “CarnaBio, 0.1” for “CarnaBio, 1”, “mM MgCl2, 1 mM MnCl2,” for “mM MgCl2”, “Km (4.0” for “Km (40”, “for 40” for “for 60”

[4] = target: Met (Homo sapiens, UniProt P08581); assay: Human MET kinase assay (HTRF KinEase); parameters: Human MET (residues 956-1390; CarnaBio, 0.1 ng/ well); purchased CarnaBio; conditions: Table 2 Biological Activities, ATP at Km (3.0 μM), read-out: c-Met IC50
Protocol: as §1
Human MET (residues 956-1390; CarnaBio, 0.1 ng/ well) was incubated with enzymatic buffer (Cisbio) supplemented with 5 mM MgCl2, 1 mM DTT and 1 mM MnCl2. The mixture was added to the pre-plated compounds. The reaction was initiated upon addition of ATP at Km (3.0 μM). The reaction was incubated at room temperature for 40 min and stopped upon the addition of SA-XL665 and TK-antibody both diluted in EDTA-containing kinase detection buffer (Cisbio). The kinase activity was calculated as stated above and the IC50 values were reported.

KDR, sequence (P35968 790-1356): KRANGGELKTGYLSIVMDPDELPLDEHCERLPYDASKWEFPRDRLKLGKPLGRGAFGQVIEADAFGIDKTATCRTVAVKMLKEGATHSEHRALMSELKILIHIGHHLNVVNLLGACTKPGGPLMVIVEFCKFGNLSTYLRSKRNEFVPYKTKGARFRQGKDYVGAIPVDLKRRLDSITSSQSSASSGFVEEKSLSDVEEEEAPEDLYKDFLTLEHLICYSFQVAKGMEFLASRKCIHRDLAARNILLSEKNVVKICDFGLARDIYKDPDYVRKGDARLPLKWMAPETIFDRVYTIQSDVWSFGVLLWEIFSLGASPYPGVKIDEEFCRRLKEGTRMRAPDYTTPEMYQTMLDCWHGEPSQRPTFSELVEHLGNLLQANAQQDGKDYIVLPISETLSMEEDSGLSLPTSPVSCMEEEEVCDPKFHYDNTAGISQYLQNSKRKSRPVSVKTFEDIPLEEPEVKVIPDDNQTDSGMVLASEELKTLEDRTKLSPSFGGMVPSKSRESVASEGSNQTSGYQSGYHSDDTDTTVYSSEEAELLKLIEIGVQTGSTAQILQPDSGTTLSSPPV
Met, sequence (P08581 956-1390): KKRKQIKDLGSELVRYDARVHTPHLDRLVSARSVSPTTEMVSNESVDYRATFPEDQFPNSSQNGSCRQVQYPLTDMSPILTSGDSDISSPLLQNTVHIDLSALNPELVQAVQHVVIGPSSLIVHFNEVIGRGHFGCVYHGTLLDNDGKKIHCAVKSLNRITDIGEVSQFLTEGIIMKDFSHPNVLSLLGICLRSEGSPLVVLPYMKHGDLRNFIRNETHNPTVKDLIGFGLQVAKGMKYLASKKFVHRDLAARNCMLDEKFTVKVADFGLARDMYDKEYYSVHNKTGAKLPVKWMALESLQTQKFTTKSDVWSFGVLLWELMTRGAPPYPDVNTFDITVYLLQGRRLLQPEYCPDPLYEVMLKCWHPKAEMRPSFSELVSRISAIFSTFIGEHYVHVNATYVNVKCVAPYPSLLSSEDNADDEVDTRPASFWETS

COc1cnc2c(Oc3ccc(NC(=O)c4c(C)ncc(-c5ccccn5)c4O)cc3F)ccnc2c1 [Compound 70, N-[3-Fluoro-4-[(7-methoxy-1,5-naphthyridin-4-yl)oxy]phenyl]-4-hydroxy-2-methyl-5-pyridin-2-ylpyridine-3-carboxamide]
IC50 [1]: ≤ 100 nM | IC50 [2]: ≤ 100 nM | IC50 [3]: ≤ 100 nM | IC50 [4]: ≤ 100 nM

Cc1ccc(C(=O)Nc2ccc(Oc3ccnc4cccnc34)c(F)c2)c(=O)n1-c1ccc(F)cn1 [Compound 48, N-[3-Fluoro-4-(1,5-naphthyridin-4-yloxy)phenyl]-1-(5-fluoropyridin-2-yl)-6-methyl-2-oxopyridine-3-carboxamide]
IC50 [1]: ≤ 100 nM | IC50 [2]: ≤ 100 nM | IC50 [3]: 300 to 1000 nM | IC50 [4]: ≤ 100 nM

COc1cc2nccc(Oc3ccc(NC(=O)c4c(C)n(C)cc(-c5ccc(F)cn5)c4=O)cc3)c2nc1OC [Compound 72, N-[4-[(6,7-Dimethoxy-1,5-naphthyridin-4-yl)oxy]phenyl]-5-(5-fluoropyridin-2-yl)-1,2-dimethyl-4-oxopyridine-3-carboxamide]
IC50 [1]: 100 to 300 nM | IC50 [3]: 300 to 1000 nM | IC50 [4]: 300 to 1000 nM

COCCOc1cc2nccc(Oc3ccc(NC(=O)c4ccc(C)n(-c5ccc(F)cn5)c4=O)cc3F)c2nc1OC [Compound 50, N-[3-Fluoro-4-[[6-methoxy-7-(2-methoxyethoxy)-1,5-naphthyridin-4-yl]oxy]phenyl]-1-(5-fluoropyridin-2-yl)-6-methyl-2-oxopyridine-3-carboxamide]
IC50 [1]: ≤ 100 nM | IC50 [2]: ≤ 100 nM | IC50 [3]: ≤ 100 nM | IC50 [4]: ≤ 100 nM

COc1cc2nccc(Oc3ccc(NC(=O)c4c(C)ncc(-c5ccccn5)c4O)cc3F)c2nc1OC [Compound 69, N-[4-[(6,7-Dimethoxy-1,5-naphthyridin-4-yl)oxy]-3-fluorophenyl]-4-hydroxy-2-methyl-5-pyridin-2-ylpyridine-3-carboxamide]
IC50 [1]: ≤ 100 nM | IC50 [2]: ≤ 100 nM | IC50 [3]: ≤ 100 nM | IC50 [4]: ≤ 100 nM

COc1cc2nccc(Oc3ccc(NC(=O)c4cccn(-c5ccc(F)cn5)c4=O)cc3F)c2nc1OC [Compound 42, N-[4-[(6,7-Dimethoxy-1,5-naphthyridin-4-yl)oxy]-3-fluorophenyl]-1-(5-fluoropyridin-2-yl)-2-oxopyridine-3-carboxamide]
IC50 [1]: ≤ 100 nM | IC50 [2]: ≤ 100 nM | IC50 [3]: ≤ 100 nM | IC50 [4]: ≤ 100 nM

COc1ccc2nccc(Oc3ccc(NC(=O)c4ccc(C)n(-c5ccc(F)cn5)c4=O)cc3F)c2c1 [Compound 49, N-[3-Fluoro-4-(6-methoxyquinolin-4-yl)oxyphenyl]-1-(5-fluoropyridin-2-yl)-6-methyl-2-oxopyridine-3-carboxamide]
IC50 [1]: ≤ 100 nM | IC50 [3]: 100 to 300 nM | IC50 [4]: ≤ 100 nM

COc1cc2nccc(Oc3ccc(NC(=O)c4c(C)n(C)cc(-c5ccc(F)cn5)c4=O)cc3F)c2nc1OC [Compound 71, N-[4-[(6,7-Dimethoxy-1,5-naphthyridin-4-yl)oxy]-3-fluorophenyl]-5-(5-fluoropyridin-2-yl)-1,2-dimethyl-4-oxopyridine-3-carboxamide]
IC50 [1]: ≤ 100 nM | IC50 [3]: 300 to 1000 nM

COc1cc2nccc(Oc3ccc(NC(=O)c4c(C)ncc(-c5ccc(F)cn5)c4O)cc3F)c2nc1OC [Compound 68, N-[4-[(6,7-Dimethoxy-1,5-naphthyridin-4-yl)oxy]-3-fluorophenyl]-5-(5-fluoropyridin-2-yl)-4-hydroxy-2-methylpyridine-3-carboxamide]
IC50 [1]: ≤ 100 nM | IC50 [2]: ≤ 100 nM | IC50 [3]: ≤ 100 nM | IC50 [4]: ≤ 100 nM

COc1cc2nccc(Oc3ccc(NC(=O)c4cc(C#N)c(C)n(-c5ccc(F)cn5)c4=O)cc3F)c2nc1OC [Compound 56, 5-Cyano-N-[4-[(6,7-dimethoxy-1,5-naphthyridin-4-yl)oxy]-3-fluorophenyl]-1-(5-fluoropyridin-2-yl)-6-methyl-2-oxopyridine-3-carboxamide]
IC50 [1]: ≤ 100 nM | IC50 [3]: 300 to 1000 nM | IC50 [4]: ≤ 100 nM

COc1cc2nccc(Oc3ccc(NC(=O)c4ccc(C)n(-c5ncc(F)cc5C)c4=O)cc3F)c2nc1OC [Compound 51, N-[4-[(6,7-Dimethoxy-1,5-naphthyridin-4-yl)oxy]-3-fluorophenyl]-1-(5-fluoro-3-methylpyridin-2-yl)-6-methyl-2-oxopyridine-3-carboxamide]
IC50 [1]: ≤ 100 nM | IC50 [2]: ≤ 100 nM | IC50 [3]: 100 to 300 nM | IC50 [4]: ≤ 100 nM

COc1ccc2nccc(Oc3ccc(NC(=O)c4ccc(C)n(-c5ccc(F)cn5)c4=O)cc3F)c2n1 [Compound 47, N-[3-Fluoro-4-[(6-methoxy-1,5-naphthyridin-4-yl)oxy]phenyl]-1-(5-fluoropyridin-2-yl)-6-methyl-2-oxopyridine-3-carboxamide]
IC50 [1]: ≤ 100 nM | IC50 [2]: ≤ 100 nM | IC50 [3]: 300 to 1000 nM | IC50 [4]: 100 to 300 nM

Cc1ccc(C(=O)Nc2ccc(Oc3ccnc4cnc(Cl)cc34)c(F)c2)c(=O)n1-c1ccc(F)cn1 [Compound 54A, N-[4-[(6-Chloro-1,7-naphthyridin-4-yl)oxy]-3-fluorophenyl]-1-(5-fluoropyridin-2-yl)-6-methyl-2-oxopyridine-3-carboxamide]
IC50 [1]: ≤ 100 nM | IC50 [3]: 300 to 1000 nM | IC50 [4]: 100 to 300 nM

COc1cnc2c(Oc3ccc(NC(=O)c4c(C)n(C)cc(-c5ccc(F)cn5)c4=O)cc3F)ccnc2c1 [Compound 73, N-[3-Fluoro-4-[(7-methoxy-1,5-naphthyridin-4-yl)oxy]phenyl]-5-(5-fluoropyridin-2-yl)-1,2-dimethyl-4-oxopyridine-3-carboxamide]
IC50 [1]: 100 to 300 nM | IC50 [3]: 300 to 1000 nM | IC50 [4]: 300 to 1000 nM
